Legend:
[1] = test system: HaCaT cells; experiment: UVR induced gene expression by qPCR (TaqMan, ΔΔCT); format: cell-based, human
Protocol: The gene expression analysis was performed on HaCat cells exposed as previously described. Following irradiation growth media was replaced RNA extraction was carried out 12 hours later. RNA extraction was carried out using the mirVana miRNA Isolation kit (Life Technologies, Paisley, UK) according to the manufacturers protocol for total RNA extraction. RNA quality was tested using RNA 6000 Nano Kit according to the manufacturers instruction.
Total RNA was then converted to cDNA using the High Capacity cDNA Reverse Transcription Kit (Applied Biosystems, Paisley, UK) according to manufacturers instructions. qPCR was performed using TaqMan Gene Expression Assays (Applied Biosystems) according to the manufacturers protocol with the following TaqMan FAM labelled DNA probes IL-20, IL-8, IL-6, TFRC, HMOX-1, MMP-3, MMP-12. VIC labelled GAPDH was used as the housekeeping gene. For each gene the fold change was measured using the ΔΔCT method.
Cells irradiated with 5J/cm^2 SSR with 0%, 0.3%, 4% and 10% palythine. RNA was extracted, cDNA synthesised, and gene expression analysed by qCR. […] The mean fold change ± SD was analysed with n≥3. The difference compared to 0% irradiated sample was analysed using ANOVA. Significance is expressed by *.
Cells irradiated with 5J/cm^2 SSR with 0%, 0.3% & 4% palythine or Helionori. RNA was extracted, cDNA synthesised, and gene expression analysed by qPCR. Data presented in figure 13 show the protection offered by palythine according to the invention compared with protection offered by prior art composition Helionori, as assessed by UVR induced gene expression.
(§1) DNA damage was then measured using the comet assay and IHC-IF looking at the specific DNA lesions of cyclobutane pyrimidine dimers (CPD) and 8-oxoGua. A percentage reduction in general and specific DNA damage was then determined by comparing cells irradiated with and without sunscreen compositions. Antioxidant ability was detected using H2DCFDA, which fluoresces when reacting with ROS with the addition of palythine post exposure. SSR induced gene expression covering a range of different markers (inflammation, photoageing, oxidative damage) was assessed using qPCR. The ability of palythine to reduce this gene expression was then assessed.

[2] = test system: HaCaT keratinocytes; experiment: Reactive oxygen species assay by FACS (carboxy-H2DCFDA), UV filtering and antioxidant effect, Example 16; format: cell-based, human; details: for ROS production compared to irradiated control: 20J/cm^2 of SSR, n=5, p<0.0001
Protocol: as §1
All assays were performed on HaCat cells grown as a 70-80 % confluent monolayer in multiwell plates. They were washed three times in PBS and covered with palythine dissolved in PBS at differing concentrations (0, 0.1, 0.3 %, 4 % and 10 % w/v). The cells were then irradiated with either SSR or UVA radiation (5-20 J/cm^2 or 20 J/cm^2 respectively). After irradiation the palythine solution was removed and the cells washed a further three times and replaced in media or processed immediately depending on the experimental design.
HaCat cells were irradiated as above or for the anti-oxidant studies, cells were also incubated with palythine post irradiation. Cells were then incubated with 10uM carboxy-H2DCFDA (Invitrogen, UK) in PBS for 30 mins in the dark at 37 °C, 5 % CO2. Cells were washed in PBS, trypsinised for 10 minutes at 37 °C, centrifuged at 1200 rpm for 5 minutes at room temperature and resuspended in PBS and counterstained with DAPI for analysis by FACS. This was carried out with a Becton Dickinson FACSAria II. Cells were gated to only analyse live cells (DAPI negative) and the average mean green intensity per condition was then plotted from at least 10,000 measured events. Analysis was carried out using FlowJo 8.7 (USA).

[3] = Absorbance profile; format: physicochemical; details: Example 14
Protocol: palythine was extracted from the red algae Palmaria decipiens using a methanol extraction (Confirmed by HPLC & LC-MS). The absorbance profile was determined and then the extract was exposed to increasing doses of solar simulated radiation (SSR) from a solar simulator (conforming to COLIPA standards). The absorbance profile was measured to determine photostability. Compositions according to the invention (in this example solutions of palythine) were prepared at different palythine concentrations (0.3% to 10%), as well as controls comprising 0% palythine, and HaCat keratinocytes were irradiated with SSR or UVA radiation through the solutions, which were placed on top of the cells.
Palythine was exposed to increasing doses of solar simulated radiation and absorbance measured. The absorbance spectrum of the palythine was measured between 280-400 nm using a Spectra Max 384 Plus (Molecular Devices; California, USA) spectrophotometer. Referring to figure 18, we show the photostability of palythine after exposure to increasing doses of solar simulated radiation. Palythine (0.0001% w/v palythine extracted from red algae Chondrus yendoi in PBS) was exposed to increasing doses of solar simulated radiation and the absorbance was measured to determine photostability.

[4] = Figure 8, RNA extraction 12 hours after irradiation, gene not responsive to UVR

For COC1=C(NCC(=O)O)CC(O)(CO)CC1=N (stereo not shown) [palythine], the “protection, UVR induced gene expression (decrease compared to the irradiated control)” value ([1]; 0.3% palythine, 5J/cm^2 SSR, figure 13) was “significant protection”, the HMOX-1 gene expression ([1]; 0.3 % palythine, Figure 8, compared to the control) was “significantly reduced” and the “MMP-12 gene expression compared to the control” value [1, 4] was “no effect”. The “TFRC gene expression compared to the control” value [1, 4] was “no effect”, the “expression of the genes compared to the irradiated control (containing no sunscreen)” value ([1]; IL-20, IL-6, IL-8, MMP-3, HMOX-1, 5J/cm^2 SSR, 0.3% & 4%) was “significant reduction” and the “SSR induced differential gene expression for all markers investigated” value ([1]; palythine at 0.3% or greater, all concentrations, p=<0.05) was “significantly reduced”. The “ROS production compared to irradiated control” value ([2]; 10% palythine post exposure (anti-oxidant)) was “significant reduction”, the “ROS production compared to irradiated control” value ([2]; palythine 0.3-10%w/v added pre exposure) was “significant reduction” and the “ROS production due to SSR irradiation (anti-oxidant properties)” value ([2]; Example 14, H2DCFDA, addition of palythine post exposure, p=<0.05) was “significant reduction”. The “absorbing in the UVB and UVA ranges” value [3] was 290-350 nm.

Source: patent publication EP3324923B1, “COMPOSITIONS AND METHODS USING PALYTHINE” (King's College London, priority 2015, dated 2017)
